A short description of data set [1]: In vivo pharmacokinetic study after intraperitoneal administration. Further details: species or system mouse. As to conditions: for half-life: 3 mg/kg. On the procedure: FIGS. 11(A-B) show in vivo pharmacokinetics in mice for a compound of the present invention. […] N=3 mice. Plasma collected serially at 0.167, 0.333. 0.5, 1, 3, and 8 hours post-administration. […] Individual data points (grey) shown alongside mean values with connecting lines.
In vivo pharmacokinetic study—The pharmacokinetic study was carried out by a contract research organization, Pharmaron, Inc. Mice were housed with free access to food and water. All protocols and procedures were compliant with Animal care and Use Application approved by the Institution Animal Care and Use Committee of Pharmaron, Inc., (protocol #PH-DMPK-VUMC-22-003) following the guidance of the Association for Assessment and Accreditation of Laboratory Animal Care (AAALAC). An ent-B1 dose of 3 mg/kg (drug/body weight) was used. Three male CDI mice, age 6-8 weeks, were selected for the study. Mice were injected intraperitoneally with ent-B1 dissolved in solution containing 10% Tween 20, 10% DMSO, 40% water, and 40% PEG-400 (v/v, 5 mL/kg), with a final concentration of 0.6 mg/mL. 30 μL of blood was collected from each animal at 10, 20, 30, 60, 180, and 480 minutes following drug administration and centrifuged at 5000×g, 4° C. for 5 minutes to obtain plasma. The samples were stored at −75±15° C. until analysis.
LC-MS/MS analysis of ent-B1—LC-MS/MS with electronspray ionization in the positive ion mode setting was used to detect ent-B1 followed by multiple reaction monitoring of precursor and product ions as follows: ent-B1 (mass-to-charge ratio [m/z] 640.18 to 214.00). Mouse plasma was quantified using nine standards (0.5-1000 ng/ml) and four quality control levels (1, 2, 50, 800 ng/ml) prepared independently of those used for the standard curve. 20 μL of standards, quality control samples, and unknown samples (10 μL plasma and 10 μL blank solution) were added to 200 μL acetonitrile containing internal standard (dexamethasone; [m/z] 393.40 to 373.30) for protein precipitation. The samples were vortexed for 30 seconds, centrifuged for 15 minutes at 4000 rpm and […], and the supernatant was diluted five times with water. Samples were then loaded into SIL-30AC autosampler and 10 μL was injected into a Shimadzu LC-30AD Series HPLC coupled to an AB Sciex Triple Quad 5500 mass spectrometer. Analytes were separated on a Raptor Biphenyl column (50×2.1 mm, 2.7 um) using a 95:5 (v/v) mobile phase mixture of 0.1% formic acid in water (mobile phase A) and 0.1% formic acid in acetonitrile (mobile phase B) at the flow rate of 0.6 ml/min. The gradient for mobile phase B was increased to 95% over 1.4 minutes with a total run time of 2.5 minutes for each sample. All quality controls and standards met the following acceptance criteria 1) standard curve of at least five standards are within 15% of their nominal concentrations and at least 50% at each quality control level (low, medium, and high) were within 15% of their nominal concentrations.
Pharmacokinetic analysis—Plasma concentrations of ent-B1 at each time point were imported to Phoenix WinNonlin® 8.0 software (Certara USA, Inc., Princeton, NJ). Plasma concentration time profiles for individual animals were analyzed by noncompartmental analysis using model 200 (Plasma; Single Extravascular Dose; Linear Log Trapezoidal Method) to approximate the elimination rate constant (ke), half-life (T1/2), maximum observed plasma concentration (Cmax), time to maximum observed plasma concentration (Tmax), the area under the plasma concentration-time curve from zero to infinity (AUCinf).

The next data set deals with T1, RyR2 (Mus musculus, UniProt E9Q401).
T1 construct: spontaneous openings of intracellular RyR2 Ca^2+ release channels; endogenous in cells; host or cells: ventricular cardiomyocytes isolated from Casq2-/- mice (saponin-permeabilized in A1, intact in A7)
Briefly: Calcium spark frequency in permeabilized Casq2 knockout cardiomyocytes (screen for RyR2 activity). The format is cell-based. On the procedure: FIGS. 3(A)-3(E) show a biological screen for cardiac ryanodine receptor (RyR2) activity. Note that ‘ent-24’=9, and ‘ent-18’ refers to structure 8 in FIG. 1, which is also the enantiomer of a natural product. (3A) Calcium spark frequency in permeabilized murine cardiomyocytes was recorded as an index of RyR2 activity. Compounds were screened at 25 uM concentration after 10-minute incubation. *=p<0.001 by one-way ANOVA with Tukey's post-hoc test. (3B) Incubation time was extended to 60 minutes for the 12- and 30-membered rings. (3C) The seco-acid precursors to 12- and 18-membered rings were tested at 25 uM. (3D) Concentration response curve for the 18-membered ring and (3E) 24-membered ring. Cells were incubated for 30 minutes
Activity of Ring-Size Analogues. […] Ventricular cardiomyocytes were isolated, permeabilized with saponin, and incubated with vehicle (DMSO) or 25 μM of selected compound. RyR2 activity was measured in the form of calcium sparks, which are elementary Ca^2+ release events generated by spontaneous openings of intracellular RyR2 Ca^2+ release channels. Importantly, saponin selectively permeabilizes the sarcolemmal membrane, leaving the SR membrane intact and ensuring equivalent access of the compounds to the SR membrane where RyR2 resides.
The compounds were first screened by incubating cardiomyocytes for 10 minutes at 25 μM concentration and compared to vehicle (DMSO) conditions.

Setting [2] is: male, mouse, plasma, ip, 3 mg/kg intraperitoneal, CD1 mice.

We go through 1 compound from patent US20240174718A1, “RYANODINE RECEPTOR INHIBITOR COMPOUNDS AND METHODS RELATING THERETO” (Vanderbilt University, priority 2022, published 2024).

Read-outs that look alike come from different tables or passages of the source.

In general, AUC(0-inf) refers to the area under the concentration-time curve extrapolated to infinity. Read a low AUC(0-inf) as less exposure. The term CL/F denotes the apparent clearance, not corrected for the fraction that reaches the circulation. The Tmax is the time from dosing to the highest level.

T1 sequence (E9Q401 whole entry): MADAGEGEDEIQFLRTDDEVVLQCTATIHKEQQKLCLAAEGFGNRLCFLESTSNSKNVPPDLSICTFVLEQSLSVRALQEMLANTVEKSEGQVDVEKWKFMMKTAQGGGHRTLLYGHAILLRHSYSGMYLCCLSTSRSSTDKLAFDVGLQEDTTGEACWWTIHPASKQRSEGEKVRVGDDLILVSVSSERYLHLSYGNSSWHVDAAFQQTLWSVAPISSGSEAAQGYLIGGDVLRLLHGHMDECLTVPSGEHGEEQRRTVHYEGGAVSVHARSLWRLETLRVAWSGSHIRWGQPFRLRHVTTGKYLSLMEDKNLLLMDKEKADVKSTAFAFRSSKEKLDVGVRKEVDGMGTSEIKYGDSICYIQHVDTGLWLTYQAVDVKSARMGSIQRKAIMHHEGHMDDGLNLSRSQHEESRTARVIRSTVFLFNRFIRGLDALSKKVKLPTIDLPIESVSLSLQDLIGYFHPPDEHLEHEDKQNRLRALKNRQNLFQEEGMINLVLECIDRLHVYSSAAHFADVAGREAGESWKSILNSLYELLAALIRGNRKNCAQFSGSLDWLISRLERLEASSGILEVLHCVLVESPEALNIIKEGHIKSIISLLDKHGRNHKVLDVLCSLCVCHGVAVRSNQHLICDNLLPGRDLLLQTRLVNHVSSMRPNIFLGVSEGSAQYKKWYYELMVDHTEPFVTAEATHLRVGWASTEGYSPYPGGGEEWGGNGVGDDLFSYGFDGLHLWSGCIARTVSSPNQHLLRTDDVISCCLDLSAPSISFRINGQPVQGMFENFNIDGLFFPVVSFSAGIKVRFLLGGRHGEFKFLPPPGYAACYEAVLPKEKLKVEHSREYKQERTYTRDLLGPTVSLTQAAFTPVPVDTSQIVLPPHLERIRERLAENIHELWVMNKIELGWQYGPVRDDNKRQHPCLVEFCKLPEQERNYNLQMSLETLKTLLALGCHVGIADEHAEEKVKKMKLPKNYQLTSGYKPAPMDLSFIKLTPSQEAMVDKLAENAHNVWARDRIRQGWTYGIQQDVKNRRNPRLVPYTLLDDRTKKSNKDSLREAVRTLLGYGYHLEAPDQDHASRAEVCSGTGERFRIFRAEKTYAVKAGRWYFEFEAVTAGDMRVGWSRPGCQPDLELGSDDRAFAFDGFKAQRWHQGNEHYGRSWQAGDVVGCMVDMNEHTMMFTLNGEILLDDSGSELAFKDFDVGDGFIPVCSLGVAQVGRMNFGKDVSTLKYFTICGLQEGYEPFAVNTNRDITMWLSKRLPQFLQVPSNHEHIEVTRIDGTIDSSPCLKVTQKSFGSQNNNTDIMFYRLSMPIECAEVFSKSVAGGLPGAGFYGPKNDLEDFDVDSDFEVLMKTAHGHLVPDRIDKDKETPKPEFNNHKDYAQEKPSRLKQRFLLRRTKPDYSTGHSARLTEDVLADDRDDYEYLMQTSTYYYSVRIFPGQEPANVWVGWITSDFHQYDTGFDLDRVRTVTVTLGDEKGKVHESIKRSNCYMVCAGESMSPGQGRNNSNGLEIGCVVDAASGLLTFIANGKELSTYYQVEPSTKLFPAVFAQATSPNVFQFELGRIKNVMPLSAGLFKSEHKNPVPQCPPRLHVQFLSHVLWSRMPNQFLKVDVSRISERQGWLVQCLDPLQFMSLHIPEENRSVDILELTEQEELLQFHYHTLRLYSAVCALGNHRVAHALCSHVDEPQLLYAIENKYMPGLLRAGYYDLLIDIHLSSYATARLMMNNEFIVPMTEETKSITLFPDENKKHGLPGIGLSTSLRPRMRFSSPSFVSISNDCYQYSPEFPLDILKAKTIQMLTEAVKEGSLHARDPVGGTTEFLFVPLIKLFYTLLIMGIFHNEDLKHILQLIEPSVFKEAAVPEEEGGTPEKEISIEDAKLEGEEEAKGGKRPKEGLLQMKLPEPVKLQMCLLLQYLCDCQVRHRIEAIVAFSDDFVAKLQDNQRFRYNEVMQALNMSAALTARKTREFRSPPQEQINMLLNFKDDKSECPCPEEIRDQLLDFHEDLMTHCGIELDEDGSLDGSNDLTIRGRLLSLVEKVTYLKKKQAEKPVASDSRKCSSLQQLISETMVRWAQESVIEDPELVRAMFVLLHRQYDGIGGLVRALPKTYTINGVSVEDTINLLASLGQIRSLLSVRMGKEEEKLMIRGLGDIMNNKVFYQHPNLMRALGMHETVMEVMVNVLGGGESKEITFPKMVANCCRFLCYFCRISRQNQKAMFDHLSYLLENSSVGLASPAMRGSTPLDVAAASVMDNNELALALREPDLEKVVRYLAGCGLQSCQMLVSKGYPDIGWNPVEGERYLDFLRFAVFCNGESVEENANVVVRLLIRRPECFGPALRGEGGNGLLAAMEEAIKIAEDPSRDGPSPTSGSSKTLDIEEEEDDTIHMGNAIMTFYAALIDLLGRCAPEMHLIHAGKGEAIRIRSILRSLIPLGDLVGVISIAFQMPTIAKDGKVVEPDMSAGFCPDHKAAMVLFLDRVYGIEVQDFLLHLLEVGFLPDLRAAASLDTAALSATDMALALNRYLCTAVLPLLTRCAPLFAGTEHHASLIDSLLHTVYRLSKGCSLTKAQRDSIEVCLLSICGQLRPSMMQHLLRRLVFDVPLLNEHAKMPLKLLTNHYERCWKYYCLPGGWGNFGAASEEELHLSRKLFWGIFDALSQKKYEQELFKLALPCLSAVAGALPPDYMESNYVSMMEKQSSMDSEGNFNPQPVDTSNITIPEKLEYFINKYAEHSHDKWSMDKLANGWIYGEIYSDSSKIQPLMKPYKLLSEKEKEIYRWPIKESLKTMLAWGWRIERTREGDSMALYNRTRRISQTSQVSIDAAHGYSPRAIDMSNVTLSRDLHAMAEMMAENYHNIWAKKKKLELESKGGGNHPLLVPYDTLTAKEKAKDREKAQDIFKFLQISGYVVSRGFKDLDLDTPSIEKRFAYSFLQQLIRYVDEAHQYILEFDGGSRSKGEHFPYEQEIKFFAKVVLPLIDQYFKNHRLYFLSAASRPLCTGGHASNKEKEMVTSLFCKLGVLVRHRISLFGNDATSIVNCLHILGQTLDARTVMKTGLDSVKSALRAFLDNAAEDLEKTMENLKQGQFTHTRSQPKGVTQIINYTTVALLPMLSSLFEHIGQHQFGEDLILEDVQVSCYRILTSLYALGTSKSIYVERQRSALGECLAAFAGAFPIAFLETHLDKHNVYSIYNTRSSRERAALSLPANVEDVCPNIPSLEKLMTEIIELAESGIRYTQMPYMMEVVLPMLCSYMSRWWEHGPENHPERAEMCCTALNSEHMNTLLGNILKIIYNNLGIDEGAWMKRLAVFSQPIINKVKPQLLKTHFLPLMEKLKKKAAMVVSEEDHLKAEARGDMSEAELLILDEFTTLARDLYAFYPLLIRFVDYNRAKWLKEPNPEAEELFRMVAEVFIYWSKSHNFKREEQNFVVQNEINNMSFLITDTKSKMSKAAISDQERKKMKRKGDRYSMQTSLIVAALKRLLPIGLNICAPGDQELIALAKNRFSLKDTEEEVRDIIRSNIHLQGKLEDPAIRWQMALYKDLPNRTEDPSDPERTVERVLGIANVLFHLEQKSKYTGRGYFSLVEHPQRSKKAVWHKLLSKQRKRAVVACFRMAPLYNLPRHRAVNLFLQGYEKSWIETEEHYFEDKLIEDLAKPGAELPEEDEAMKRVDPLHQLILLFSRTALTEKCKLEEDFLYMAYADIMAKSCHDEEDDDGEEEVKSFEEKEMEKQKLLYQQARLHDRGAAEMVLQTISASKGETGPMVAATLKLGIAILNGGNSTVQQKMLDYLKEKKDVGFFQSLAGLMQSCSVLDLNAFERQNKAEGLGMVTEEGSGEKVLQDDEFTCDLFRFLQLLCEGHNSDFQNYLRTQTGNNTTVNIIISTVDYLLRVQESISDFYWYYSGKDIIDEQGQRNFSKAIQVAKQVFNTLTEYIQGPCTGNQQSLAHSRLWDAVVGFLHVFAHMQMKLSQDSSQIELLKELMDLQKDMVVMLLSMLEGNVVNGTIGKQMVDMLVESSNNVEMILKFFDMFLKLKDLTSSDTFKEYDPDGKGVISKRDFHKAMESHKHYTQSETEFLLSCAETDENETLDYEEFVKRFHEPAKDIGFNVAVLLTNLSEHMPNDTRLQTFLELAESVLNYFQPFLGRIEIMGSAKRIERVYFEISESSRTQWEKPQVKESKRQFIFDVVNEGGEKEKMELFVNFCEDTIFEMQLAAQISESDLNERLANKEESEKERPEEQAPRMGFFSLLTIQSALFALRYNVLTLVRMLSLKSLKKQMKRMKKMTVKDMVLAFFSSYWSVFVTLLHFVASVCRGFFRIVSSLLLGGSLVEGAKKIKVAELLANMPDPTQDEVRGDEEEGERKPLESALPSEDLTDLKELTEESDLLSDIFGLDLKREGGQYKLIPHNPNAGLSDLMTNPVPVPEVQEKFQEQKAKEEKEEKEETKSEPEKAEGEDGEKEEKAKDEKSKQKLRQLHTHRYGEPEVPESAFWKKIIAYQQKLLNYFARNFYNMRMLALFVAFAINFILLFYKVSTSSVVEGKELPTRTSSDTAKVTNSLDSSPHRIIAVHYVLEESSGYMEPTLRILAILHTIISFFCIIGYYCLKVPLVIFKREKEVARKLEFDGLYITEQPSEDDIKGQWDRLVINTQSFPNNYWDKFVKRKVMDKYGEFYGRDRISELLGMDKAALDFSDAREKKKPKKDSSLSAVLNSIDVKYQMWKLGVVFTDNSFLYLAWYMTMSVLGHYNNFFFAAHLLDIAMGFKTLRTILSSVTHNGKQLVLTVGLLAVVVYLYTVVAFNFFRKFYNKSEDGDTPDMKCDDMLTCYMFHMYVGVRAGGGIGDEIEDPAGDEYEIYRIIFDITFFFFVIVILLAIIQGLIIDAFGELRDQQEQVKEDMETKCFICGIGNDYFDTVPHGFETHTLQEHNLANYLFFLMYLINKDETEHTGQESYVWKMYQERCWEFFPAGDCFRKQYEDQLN

For the compound `CCCCC[C@@H]1OC(=O)[C@@H](C)N(C)C(=O)[C@H](CCCCC)OC(=O)[C@@H](C)N(C)C(=O)[C@H](CCCCC)OC(=O)[C@@H](C)N(C)C1=O` (single isomer, unassigned) [ent-B1], the “time of peak plasma concentration after i.p. injection” value in data set [1] (3 mg/kg i.p.) was found to be 10 min. Also, the “clinical observation during PK experiment” value in data set [1] (3 mg/kg i.p., CD1 mice) is recorded as “no abnormality”. For the same compound, in data set [1] (3 mg/kg intraperitoneal, CD1 mice), the “ke (elimination rate constant)” value came out at 0.932 ± 0.139 h⁻¹. In addition, the half-life is 45.4 min in data set [1] (male, CD1, mouse, plasma, ip, 3 mg/kg i.p., mice, read-out: mean elimination half-life (t1/2)) and 45.4 ± 7.38 min in data set [1] (male, CD1, mouse, plasma, ip, 3 mg/kg intraperitoneal, CD1 mice, read-out: T1/2 (elimination half-life) (converted)). Also, the Cmax was 2300 nM in data set [1] (male, CD1, mouse, plasma, ip, 3 mg/kg i.p., read-out: mean peak plasma concentration (Cmax)) and 1460 ng/mL in data set [1] (male, mouse, ip, 3 mg/kg intraperitoneal, CD1 mice, plasma, read-out: Cmax). Also, in data set [1] (setting [2]), the AUC(0-inf) came to 1020 ± 184 ng·h/mL. Moreover, the CL/F in data set [1] (setting [2]) is 50.2 mL/min/kg. Also, in data set [1] (setting [2]), the Tmax turned out to be 10 min. The Vd/F in data set [1] (male, mouse, plasma, ip, 3 mg/kg intraperitoneal, CD1 mice, read-out: Vz/F) was found to be 3.32 ± 1 L/kg. For the same compound, in data set [1] (mouse, in vivo), the “peak plasma concentration in vivo relative to IC50 in cardiomyocytes” value is on record as “more than 10 fold”. The “RyR2-mediated Ca2+ spark frequency” value on RyR2 (25 μM, 10 minutes incubation, vs vehicle (DMSO)) is “significantly inhibited”. Further, the “activity in the calcium spark assay (summary statement)” value was “potent inhibitor” at RyR2 (listed as 8) and “potent” on RyR2 (listed as 18-membered COD).
